Laboratory results as given in US7943795B2, “Vitamin D receptor modulators” (Eli Lilly and Company, priority 2004, dated 2011).

Experiments:
[1] = test system: KERtr cells (Human skin keratinocyte); experiment: Keratinocyte proliferation assay; assay type: cell-based; settings: 72 hr, BrdU incorporation, read-out: Keranocyte Proliferation IC50
Procedure: 6. The keratinocyte proliferation assay is described in the “Assay” section of the Description, infra.
The Keratinocyte Proliferation Assay
This Assay is indicative for the treatment of psoriasis. An acceptable test result is IC50 value of less than or equal to 300 nM. Preferred assay results are IC50 values of less than 100 nM.
KERtr cells (Human skin keratinocyte are transformed with a retrovirus vector, obtained from ATCC, then are plated in 96-well flat-bottomed plates (3000 cells/well) in 100 μl keratinocyte serum free medium supplemented with bovine pituitary extract in the absence of EGF (Life Technologies, Rockville, Md.) and are incubated at 37° C. for two days. The cells are treated with various concentrations of VDR ligands (ten-fold serial dilution from 10,000 nM to 0.1 nM in triplicate), dissolved in 100 μl keratinocyte serum free medium supplemented with bovine pituitary extract in the absence of EGF and are incubated at 37° C. for 72 hr. BrdU (5-bromo-2′-deoxyuridine) incorporation is analyzed as a measure of DNA replication (Cell proliferation ELISA kit, Roche Diagnostics, Indianapolis, Ind.) and absorbance is measured at […]. Potency values (IC50) values were determined as the concentration (nM) of compound that elicited a half-maximal response.

[2] = test system: IL-10 production in PBMCs; experiment: IL-10 induction assay; assay type: cell-based; settings: PBMC; TPA/PHA stimulated human PBMCs, IL-10 in supernatant by immunoassay
From the text: 7. The IL-10 induction assay is described in the “Assay” section of the Description, infra.
The IL-10 Induction Assay
This is an in vitro efficacy assay for psoriasis, abscess and adhesion. Psoriasis involves both keratinocytes and immune cells. IL-10 is a unique cytokine because it is anti-inflammatory and immunosuppressive. This assay tells us whether a VDRM is able to function as an agonist in PBMCs (primary blood mononuclear cells) or not. A lower EC50 value is desirable in this assay since a compound with a lower EC50 value will be a better agonist in PBMCs. An acceptable test result is an EC50 value of less than 200 nM. Preferred assay results are EC50 values of less than 100 nM.
Isolation of Peripheral Blood Mononuclear Cells (PBMCs):
Collect 50 ml of human blood and dilute with media, RPMI-1640. Add diluted blood to sterile tubes with ficol. Centrifuge the tubes. Discard the top layer and collect the cells from middle layer. Divide all cells into four tubes and add media. Centrifuge. Aspirate off media and resuspend the cells. Collect all cells. Centrifuge at 1200 rpm for 10 m. Resuspend the cells in RPMI-1640 with 2% FBS and then count cells.
Stimulation of PBMC: Prepare TPA in DMSO. Dissolve PHA in water. Plate TPA/PHA treated PBMCs in well plates. Incubate the cells.
Treatment: Prepare all compound dilutions in plain RPMI-1640 media. Add diluted compound and incubate. Sample Collection and assay: Remove all the cells by centrifugation and assay the supernatant for IL-10 by immunoassay using anti-human IL-10 antibody coated beads, as described by the manufacturer (Linco Research Inc., St. Charles, Mo.).

Compound: CCC(CC)(c1ccc(OCC(O)C(C)(C)C)c(C)c1)c1ccc2cc(C(=O)O)ccc2c1 (racemic) [Ex. 2, 6-{1-Ethyl-1-[4-(2-hydroxy-3,3-dimethyl-butoxy)-3-methyl-phenyl]-propyl}-naphthalene-2-carboxylic acid]
- IC50 [1]: 47 nM
- IC50 [2]: 49 nM
